Source: ChEMBL document CHEMBL3272271, “Folate antagonists. 13. 2,4-Diamino-6-](alpha,alpha,alpha-trifluoro-m-tolyl)thio]quinazoline and related 2,4-diamino-6-[(phenyl- and naphthyl)thio]quinazolines, a unique class of antimetabolites with extraordinary antimalarial and antibacterial effects” (J Med Chem, 1978)
Converted amounts (≈) assume the structure as drawn. The source made the active and inactive calls. No cut-off for these calls is given here.

Legend:
Plasmodium gallinaceum [1] = test: Antimalarial activity against sporozoite-induced Plasmodium gallinaceum infected in white leghorn chicken assessed as disease cure from parasite infection at 30 mg/kg, sc administered 72 hrs after infection; assay type: functional, organism-based; set-up: dose 30 mg/kg
Plasmodium gallinaceum [2] = test: Antimalarial activity against sporozoite-induced Plasmodium gallinaceum infected in white leghorn chicken assessed as disease cure from parasite infection at 240 mg/kg, sc administered 72 hrs after infection; assay type: functional, organism-based; set-up: dose 240 mg/kg
Plasmodium gallinaceum [3] = test: Antimalarial activity against sporozoite-induced Plasmodium gallinaceum infected in white leghorn chicken assessed as disease cure from parasite infection at 15 mg/kg, sc administered 72 hrs after infection; assay type: functional, organism-based; set-up: dose 15 mg/kg
Plasmodium gallinaceum [4] = test: Antimalarial activity against sporozoite-induced Plasmodium gallinaceum infected in white leghorn chicken assessed as disease cure from parasite infection at 60 mg/kg, sc administered 72 hrs after infection; assay type: functional, organism-based; set-up: dose 60 mg/kg
Plasmodium gallinaceum [5] = test: Antimalarial activity against sporozoite-induced Plasmodium gallinaceum infected in white leghorn chicken assessed as disease cure from parasite infection at 120 mg/kg, sc administered 72 hrs after infection; assay type: functional, organism-based; set-up: dose 120 mg/kg
Plasmodium gallinaceum [6] = test: Antimalarial activity against trophozoite-induced Plasmodium gallinaceum infected in white leghorn chicken assessed as disease cure from parasite infection at 80 mg/kg, sc administered 72 hrs after infection; assay type: functional, organism-based; set-up: dose 80 mg/kg
Plasmodium berghei [7] = test: Antimalarial activity against Plasmodium berghei infected in mouse assessed as disease cure from parasite infection at 160 mg/kg, sc administered 72 hrs after infection; assay type: functional, organism-based; set-up: dose 160 mg/kg
Plasmodium gallinaceum [8] = test: Antimalarial activity against trophozoite-induced Plasmodium gallinaceum infected in white leghorn chicken assessed as disease cure from parasite infection at 40 mg/kg, sc administered 72 hrs after infection; assay type: functional, organism-based; set-up: dose 40 mg/kg
Plasmodium gallinaceum [9] = test: Antimalarial activity against sporozoite-induced Plasmodium gallinaceum infected in white leghorn chicken assessed as disease cure from parasite infection at 480 mg/kg, sc administered 72 hrs after infection; assay type: functional, organism-based; set-up: dose 480 mg/kg
Plasmodium berghei [10] = test: Antimalarial activity against Plasmodium berghei infected in mouse assessed as disease cure from parasite infection at 640 mg/kg, sc administered 72 hrs after infection; assay type: functional, organism-based; set-up: dose 640 mg/kg
Plasmodium gallinaceum [11] = test: Antimalarial activity against trophozoite-induced Plasmodium gallinaceum infected in white leghorn chicken assessed as disease cure from parasite infection at 160 mg/kg, sc administered 72 hrs after infection; assay type: functional, organism-based; set-up: dose 160 mg/kg
Plasmodium berghei [12] = test: Antimalarial activity against Plasmodium berghei infected in mouse assessed as disease cure from parasite infection at 320 mg/kg, sc administered 72 hrs after infection; assay type: functional, organism-based; set-up: dose 320 mg/kg
Plasmodium gallinaceum [13] = test: Antimalarial activity against trophozoite-induced Plasmodium gallinaceum infected in white leghorn chicken assessed as disease cure from parasite infection at 320 mg/kg, sc administered 72 hrs after infection; assay type: functional, organism-based; set-up: dose 320 mg/kg
Plasmodium gallinaceum [14] = test: Antimalarial activity against sporozoite-induced Plasmodium gallinaceum infected in white leghorn chicken assessed as disease cure from parasite infection at 7.5 mg/kg, sc administered 72 hrs after infection; assay type: functional, organism-based; set-up: dose 7.5 mg/kg
Plasmodium gallinaceum [15] = test: Antimalarial activity against trophozoite-induced Plasmodium gallinaceum infected in white leghorn chicken assessed as increase in mean survival days of host at 2.5 mg/kg, sc administered 72 hrs after infection relative to control; assay type: functional; conditions: route subcutaneous
Plasmodium berghei [16] = test: Antimalarial activity against Plasmodium berghei infected in mouse assessed as increase in mean survival days of host at 5 mg/kg, sc administered 72 hrs after infection relative to control; assay type: functional; conditions: route subcutaneous
Plasmodium berghei [17] = test: Antimalarial activity against chloroquine-resistant Plasmodium berghei assessed as drug resistance; assay type: functional, organism-based
Plasmodium gallinaceum [18] = test: Antimalarial activity against trophozoite-induced Plasmodium gallinaceum infected in white leghorn chicken assessed as increase in mean survival days of host at 0.63 mg/kg, sc administered 72 hrs after infection relative to control; assay type: functional; conditions: route subcutaneous
Plasmodium berghei [19] = test: Antimalarial activity against cycloguanil-resistant Plasmodium berghei assessed as drug resistance; assay type: functional, organism-based
Plasmodium gallinaceum [20] = test: Antimalarial activity against trophozoite-induced Plasmodium gallinaceum infected in white leghorn chicken assessed as disease cure from parasite infection at 20 mg/kg, sc administered 72 hrs after infection; assay type: functional, organism-based; set-up: dose 20 mg/kg
Plasmodium gallinaceum [21] = test: Antimalarial activity against trophozoite-induced Plasmodium gallinaceum infected in white leghorn chicken assessed as disease cure from parasite infection at 10 mg/kg, sc administered 72 hrs after infection; assay type: functional, organism-based; set-up: dose 10 mg/kg
Plasmodium falciparum [22] = test: Antimalarial activity against chloroquine-susceptible, pyrimethamine-resistant Plasmodium falciparum Malayan Camp infected in Aotus trivirgatus owl monkey model assessed as cure from parasite infection at 0.39 to 5 mg/kg, po qd for 7 days relative to control; assay type: functional; conditions: dose mg/kg 0.39-5
Staphylococcus aureus [23] = test: Antibacterial activity against Staphylococcus aureus UC-96 by gradient plate test; assay type: functional
Plasmodium falciparum [24] = test: Antimalarial activity against pyrimethamine-sensitive Plasmodium falciparum Vietnam Oak Knoll infected in Aotus trivirgatus owl monkey model assessed as cure from parasite infection at 0.6 mg/kg, po qd for 7 days relative to control; assay type: functional
Plasmodium berghei [25] = test: Antimalarial activity against Plasmodium berghei infected in mouse assessed as disease cure from parasite infection at 20 mg/kg, sc administered 72 hrs after infection; assay type: functional, organism-based; set-up: dose 20 mg/kg
Plasmodium berghei [26] = test: Antimalarial activity against Plasmodium berghei infected in mouse assessed as disease cure from parasite infection at 40 mg/kg, sc administered 72 hrs after infection; assay type: functional, organism-based; set-up: dose 40 mg/kg
Shigella sonnei = test: Antibacterial activity against Shigella sonnei C-10 by gradient plate test; assay type: functional
Staphylococcus aureus [27] = test: Antibacterial activity against drug-resistant Staphylococcus aureus S18713 by gradient plate test; assay type: functional
Plasmodium gallinaceum [28] = test: Antimalarial activity against trophozoite-induced Plasmodium gallinaceum infected in white leghorn chicken assessed as increase in mean survival days of host at 5 mg/kg, sc administered 72 hrs after infection relative to control; assay type: functional; conditions: route subcutaneous
Plasmodium berghei [29] = test: Antimalarial activity against Plasmodium berghei infected in mouse assessed as increase in mean survival days of host at 2.5 mg/kg, sc administered 72 hrs after infection relative to control; assay type: functional; conditions: route subcutaneous
Plasmodium falciparum [30] = test: Antimalarial activity against chloroquine-susceptible, pyrimethamine-resistant Plasmodium falciparum Malayan Camp infected in Aotus trivirgatus owl monkey model assessed as cure from parasite infection at >2.5 mg/kg, po qd for 7 days relative to control; assay type: functional
Plasmodium berghei [31] = test: Antimalarial activity against Plasmodium berghei infected in mouse assessed as disease cure from parasite infection at 80 mg/kg, sc administered 72 hrs after infection; assay type: functional, organism-based; set-up: dose 80 mg/kg
Escherichia coli = test: Antibacterial activity against Escherichia coli Vogel by gradient plate test; assay type: functional
Pseudomonas aeruginosa = test: Antibacterial activity against Pseudomonas aeruginosa 28 by gradient plate test; assay type: functional
Plasmodium berghei [32] = test: Antimalarial activity against Plasmodium berghei infected in mouse assessed as increase in mean survival days of host at 1.25 mg/kg, sc administered 72 hrs after infection relative to control; assay type: functional; conditions: route subcutaneous
Plasmodium falciparum [33] = test: Antimalarial activity against pyrimethamine-sensitive Plasmodium falciparum Vietnam Oak Knoll infected in Aotus trivirgatus owl monkey model assessed as cure from parasite infection at 0.098 to 1.56 mg/kg, po qd for 7 days relative to control; assay type: functional; conditions: dose mg/kg 0.098-1.56
Enterococcus faecalis = test: Antibacterial activity against Streptococcus faecalis MGH-2 by gradient plate test; assay type: functional
Plasmodium gallinaceum [34] = test: Antimalarial activity against trophozoite-induced Plasmodium gallinaceum infected in white leghorn chicken assessed as increase in mean survival days of host at 1.25 mg/kg, sc administered 72 hrs after infection relative to control; assay type: functional; conditions: route subcutaneous
Plasmodium berghei [35] = test: Antimalarial activity against Plasmodium berghei infected in mouse assessed as increase in mean survival days of host at 10 mg/kg, sc administered 72 hrs after infection relative to control; assay type: functional; conditions: route subcutaneous

In the case of `Nc1nc(N)c2cc(NCc3ccc(Cl)c(Cl)c3)ccc2n1`, the Activity (Plasmodium gallinaceum [1]) was “Active”, the Activity (Plasmodium gallinaceum [2]) was “Active” and the Activity (Plasmodium gallinaceum [3]) was “Active”. For the same molecule, the Activity (Plasmodium gallinaceum [4]) was “Active”, the Activity (Plasmodium gallinaceum [5]) was “Active” and the Activity (Plasmodium gallinaceum [6]) was “Active”. The Activity (Plasmodium berghei [7]) was “Active”, the Activity (Plasmodium gallinaceum [8]) was “Active” and the Activity (Plasmodium gallinaceum [9]) was “Active”. The Activity (Plasmodium berghei [10]) was “Active”, the Activity (Plasmodium gallinaceum [11]) was “Active” and the Activity (Plasmodium berghei [12]) was “Active”. For the same molecule, the Activity (Plasmodium gallinaceum [13]) was “Active” and the Activity (Plasmodium gallinaceum [14]) was “Active”.
`CN(C)c1ccc(Sc2ccc3nc(N)nc(N)c3c2)cc1` was tested, and the MST (Plasmodium gallinaceum [15]) was 12.6 days, the MST (Plasmodium berghei [16]) was 9.7 days and the Activity (Plasmodium berghei [17]) was “inactive”. For the same molecule, the MST (Plasmodium gallinaceum [18]) was 6.6 days, the Activity (Plasmodium berghei [19]) was “Active” and the Activity (Plasmodium gallinaceum [1]) was “Active”. For the same molecule, the Activity (Plasmodium gallinaceum [20]) was “Active”, the Activity (Plasmodium gallinaceum [2]) was “Active” and the Activity (Plasmodium gallinaceum [21]) was “Active”. For the same molecule, the Activity (Plasmodium falciparum [22]) was greater than 50%, the Activity (Plasmodium gallinaceum [3]) was “Active” and the Activity (Plasmodium gallinaceum [4]) was “Active”. For the same molecule, the MIC (Staphylococcus aureus [23]) was less than 0.25 µg/mL, the Activity (Plasmodium falciparum [24]) was greater than 50% and the Activity (Plasmodium berghei [25]) was “Active”. For the same molecule, the Activity (Plasmodium berghei [26]) was “Active”, the MIC (Shigella sonnei) was 10 µg/mL (≈ 32.1 µM) and the Activity (Plasmodium gallinaceum [5]) was “Active”. It also gave an MIC (Staphylococcus aureus [27]) of less than 0.25 µg/mL, an MST (Plasmodium gallinaceum [28]) of 19.8 days and an MST (Plasmodium berghei [29]) of 5.5 days. For the same molecule, the Activity (Plasmodium berghei [7]) was “Active”, the Activity (Plasmodium falciparum [30]) was greater than 50% and the Activity (Plasmodium berghei [31]) was “Active”. For the same molecule, the MIC (Escherichia coli) was 1.5 µg/mL (≈ 4.82 µM), the Activity (Plasmodium gallinaceum [9]) was “Active” and the MIC (Pseudomonas aeruginosa) was greater than 25 µg/mL. The Activity (Plasmodium berghei [10]) was “Active”, the MST (Plasmodium berghei [32]) was 2.5 days and the Activity (Plasmodium falciparum [33]) was greater than 50%. For the same molecule, the MIC (Enterococcus faecalis) was less than 0.25 µg/mL, the Activity (Plasmodium berghei [12]) was “Active” and the MST (Plasmodium gallinaceum [34]) was 10.4 days. It also gave an MST (Plasmodium berghei [35]) of 10.3 days.
